Where two headings read alike, the source gives them in different places.
Columns and labels:
[1] = test system: CXF280 Human Colon Carcinoma; test: Antitumor testing against human colon cancer xenograft CXF280; assay type: in vivo, BALB/c nu/nu mice; parameters: key to Fecal observation: N: normal feces; L: loose passage; key to % Growth inhibition: NE: Not Effective; conditions: for inhibition in vivo at 1 mmol/kg/day: Exp. 1, 1.0 mmol/kg/day x 21, oral
Method: CXF280 tumor (about 2×2 mm piece) was implanted subcutaneously into BALB/c nu/nu mice (21-22 g) on day 0. When tumor volume became 100 mm^3 on day around 14, the compounds of the invention were orally administered daily for 3 weeks. At one day after the last treatment, tumor volume was calculated.
The percent inhibition of tumor growth given in Table 3 above was calculated from the formula:
% Inhibition ={1-(T-V0)/(C-V0)}×100
V0 =volume of tumor before treatment was started, T=volume of the tumors from the treated group, C=volume of the tumor from the control group.

[2] = Pharmacokinetic profiles in monkeys (plasma 5'-DFUR after oral administration); assay type: in vivo; conditions: cynomolgous monkeys, metabolite 5'-DFUR in plasma
Method: The compounds of formula (I) were orally administered into groups of 2 to 5 cynomolgous monkeys (3-4 kg). At various times after the administration, plasma was taken for determination of blood concentrations of intact molecules and their active metabolite 5'-DFUR. Metabolites in the plasma were separated by HPLC and their concentrations were calculated.

monkey liver acylamidase = test: Susceptibility to monkey liver acylamidase (crude liver extract, 5'-DFCR formed by HPLC); assay type: in vitro ADME; conditions: tetrahydrouridine 0.4 mM, 37° C., 60 min
Method: (§1) The N^4 -(substituted-oxycarbonyl)-5'-DFCRs of the invention were incubated with crude extracts of monkey and human liver in the presence of an inhibitor of cytidine deaminase, tetrahydrouridine (0.4 mM) at 37° C. for 60 min. Thereafter, the product 5'-DFCR was separated by HPLC and the enzyme susceptibility was calculated from the amount of the product.

human liver acylamidase = test: Susceptibility to human liver acylamidase (crude liver extract, 5'-DFCR formed by HPLC); assay type: in vitro ADME; conditions: tetrahydrouridine 0.4 mM, 37° C., 60 min
Method: as §1

[3] = Toxicity (LD50), oral administration daily for 21 days in mice; conditions: mouse, in vivo
Method: The toxicity (LD50) of the representative compounds (Example 13,14, and 17) of the present invention was examined by oral administration daily for 21 days in mice. The representative LD50 values obtained from the experiments were more than 500 mg/kg/day.

[4] = Exp. 2, 0.089 mmol/kg/day x 21, oral
[5] = Mus musculus, po, Exp. 1, 0.13 mmol/kg/day x 21, oral, read-out: % Growth inhibition
[6] = Mus musculus, po, Exp. 2, 0.13 mmol/kg/day x 21, oral, read-out: % Growth inhibition
[7] = Exp. 2, 2.25 mmol/kg/day x 21, oral
[8] = Mus musculus, po, Exp. 2, 0.3 mmol/kg/day x 21, oral, read-out: % Growth inhibition
[9] = Mus musculus, po, Exp. 2, 0.67 mmol/kg/day x 21, oral, read-out: % Growth inhibition
[10] = Mus musculus, po, Exp. 2, 1.5 mmol/kg/day x 21, oral, read-out: % Growth inhibition
[11] = Mus musculus, po, Exp. 2, 2.25 mmol/kg/day x 21, oral, read-out: % Growth inhibition
[12] = Exp. 1, 1.5 mmol/kg/day x 21, oral
[13] = Mus musculus, po, Exp. 1, 0.3 mmol/kg/day x 21, oral, read-out: % Growth inhibition
[14] = Mus musculus, po, Exp. 1, 0.67 mmol/kg/day x 21, oral, read-out: % Growth inhibition
[15] = Mus musculus, po, read-out: % Growth inhibition
[16] = Mus musculus, po, Exp. 1, 1.5 mmol/kg/day x 21, oral, read-out: % Growth inhibition

O=c1[nH]cc(F)c(=O)[nH]1 [Example 5-FU, 5-fluorouracil, reference compound]
Fecal observation ([1]; Exp. 1, 0.089 mmol/kg/day x 21, oral): N
Fecal observation ([1]; Exp. 1, 0.13 mmol/kg/day x 21, oral): N
Fecal observation ([1]; Exp. 1, 0.2 mmol/kg/day x 21, oral): L
% Growth inhibition [1, 4]: NE
Fecal observation [1, 4]: N
Fecal observation ([1]; Exp. 2, 0.13 mmol/kg/day x 21, oral): N
Fecal observation ([1]; Exp. 2, 0.2 mmol/kg/day x 21, oral): L
inhibition in vivo at 0.089 mmol/kg/day ([1]; Mus musculus, po, Exp. 1, 0.089 mmol/kg/day x 21, oral, read-out: % Growth inhibition): 28%
inhibition in vivo at 0.13 mmol/kg/day [1, 5]: 59%
inhibition in vivo at 0.2 mmol/kg/day ([1]; Mus musculus, po, Exp. 1, 0.2 mmol/kg/day x 21, oral, read-out: % Growth inhibition): 79%
inhibition in vivo at 0.13 mmol/kg/day [1, 6]: 20%
inhibition in vivo at 0.2 mmol/kg/day ([1]; Mus musculus, po, Exp. 2, 0.2 mmol/kg/day x 21, oral, read-out: % Growth inhibition): 58%

CCCOC(=O)Nc1nc(=O)n([C@@H]2O[C@H](C)[C@@H](O)[C@H]2O)cc1F [Example 10, 5'-deoxy-5-fluoro-N^4-(propoxycarbonyl)cytidine]
Plasma 5'-DFUR AUC [2]: 2.03 µg·h/mL
Fecal observation [1, 7]: N
inhibition in vivo at 0.13 mmol/kg/day [1, 6]: 39%
inhibition in vivo at 0.3 mmol/kg/day [1, 8]: 56%
inhibition in vivo at 0.67 mmol/kg/day [1, 9]: 75%
inhibition in vivo at 1.5 mmol/kg/day [1, 10]: 86%
inhibition in vivo at 2.25 mmol/kg/day [1, 11]: 93%

CCCCOC(=O)Nc1nc(=O)n([C@@H]2O[C@H](C)[C@@H](O)[C@H]2O)cc1F [Example 11, N^4-(butoxycarbonyl)-5'-deoxy-5-fluorocytidine]
Acylamidase activity, Monkey Liver (monkey liver acylamidase): 20 nmol/mg protein/hr
Acylamidase activity, Human Liver (human liver acylamidase): 71 nmol/mg protein/hr
Plasma 5'-DFUR AUC [2]: 2.06 µg·h/mL
Fecal observation [1, 7]: N
inhibition in vivo at 0.13 mmol/kg/day [1, 6]: 46%
inhibition in vivo at 0.3 mmol/kg/day [1, 8]: 72%
inhibition in vivo at 0.67 mmol/kg/day [1, 9]: 84%
inhibition in vivo at 1.5 mmol/kg/day [1, 10]: 95%
inhibition in vivo at 2.25 mmol/kg/day [1, 11]: 100%

CCCCCOC(=O)Nc1nc(=O)n([C@@H]2O[C@H](C)[C@@H](O)[C@H]2O)cc1F [Example 12, 5'-deoxy-5-fluoro-N^4-(pentyloxycarbonyl)cytidine]
Acylamidase activity, Monkey Liver (monkey liver acylamidase): 29 nmol/mg protein/hr
Acylamidase activity, Human Liver (human liver acylamidase): 190 nmol/mg protein/hr
Plasma 5'-DFUR AUC [2]: 2.90 µg·h/mL
Fecal observation [1, 12]: N
inhibition in vivo at 0.13 mmol/kg/day [1, 5]: 68%
inhibition in vivo at 0.3 mmol/kg/day [1, 13]: 69%
inhibition in vivo at 0.67 mmol/kg/day [1, 14]: 86%
inhibition in vivo at 1 mmol/kg/day [1, 15]: 86%
inhibition in vivo at 1.5 mmol/kg/day [1, 16]: 96%

CCC(CC)COC(=O)Nc1nc(=O)n([C@@H]2O[C@H](C)[C@@H](O)[C@H]2O)cc1F [Example 15, 5'-deoxy-N^4-[(2-ethylbutoxy)carbonyl]-5-fluorocytidine]
Acylamidase activity, Monkey Liver (monkey liver acylamidase): 23 nmol/mg protein/hr
Acylamidase activity, Human Liver (human liver acylamidase): 210 nmol/mg protein/hr
Plasma 5'-DFUR AUC [2]: 2.89 µg·h/mL

C[C@H]1O[C@@H](n2cc(F)c(NC(=O)OCC3CCCCC3)nc2=O)[C@H](O)[C@@H]1O [Example 16, N^4-[(cyclohexylmethoxy)carbonyl]-5'-deoxy-5-fluorocytidine]
Acylamidase activity, Monkey Liver (monkey liver acylamidase): 33 nmol/mg protein/hr
Acylamidase activity, Human Liver (human liver acylamidase): 210 nmol/mg protein/hr
Plasma 5'-DFUR AUC [2]: 2.52 µg·h/mL

C[C@H]1O[C@@H](n2cc(F)c(NC(=O)OCCc3ccccc3)nc2=O)[C@H](O)[C@@H]1O [Example 17, 5'-deoxy-5-fluoro-N^4-[(2-phenylethoxy)carbonyl]cytidine]
Acylamidase activity, Monkey Liver (monkey liver acylamidase): 22 nmol/mg protein/hr
Acylamidase activity, Human Liver (human liver acylamidase): 160 nmol/mg protein/hr
Plasma 5'-DFUR AUC [2]: 2.66 µg·h/mL
LD50 at 504 h [3]: > 500 mg/kg

C[C@H]1O[C@@H](n2cc(F)c(NC(=O)OCCC3CCCCC3)nc2=O)[C@H](O)[C@@H]1O [Example 20, N^4-[(2-cyclohexylethoxy)carbonyl]-5'-deoxy-5-fluorocytidine]
Acylamidase activity, Monkey Liver (monkey liver acylamidase): 19 nmol/mg protein/hr
Acylamidase activity, Human Liver (human liver acylamidase): 320 nmol/mg protein/hr

C[C@H]1O[C@@H](n2cc(F)c(NC(=O)OCCCC3CCCCC3)nc2=O)[C@H](O)[C@@H]1O [Example 21, N^4-[(3-cyclohexylpropyl)oxycarbonyl]-5'-deoxy-5-fluorocytidine]
Acylamidase activity, Monkey Liver (monkey liver acylamidase): 26 nmol/mg protein/hr
Acylamidase activity, Human Liver (human liver acylamidase): 82 nmol/mg protein/hr

C[C@H]1O[C@@H](n2cc(F)c(NC(=O)OCCCc3ccccc3)nc2=O)[C@H](O)[C@@H]1O [Example 22, 5'-deoxy-5-fluoro-N^4-[(3-phenylpropyl)oxycarbonyl]cytidine]
Acylamidase activity, Monkey Liver (monkey liver acylamidase): 43 nmol/mg protein/hr
Acylamidase activity, Human Liver (human liver acylamidase): 110 nmol/mg protein/hr

CC(C)COC(=O)Nc1nc(=O)n([C@@H]2O[C@H](C)[C@@H](O)[C@H]2O)cc1F [Example 24, 5'-deoxy-5-fluoro-N^4-(isobutoxycarbonyl)cytidine]
Acylamidase activity, Monkey Liver (monkey liver acylamidase): 18 nmol/mg protein/hr
Acylamidase activity, Human Liver (human liver acylamidase): 64 nmol/mg protein/hr
Fecal observation [1, 12]: N
inhibition in vivo at 0.13 mmol/kg/day [1, 5]: 37%
inhibition in vivo at 0.3 mmol/kg/day [1, 13]: 64%
inhibition in vivo at 0.67 mmol/kg/day [1, 14]: 75%
inhibition in vivo at 1 mmol/kg/day [1, 15]: 83%
inhibition in vivo at 1.5 mmol/kg/day [1, 16]: 89%

CCCC(CCC)COC(=O)Nc1nc(=O)n([C@@H]2O[C@H](C)[C@@H](O)[C@H]2O)cc1F [Example 25, 5'-deoxy-5-fluoro-N^4-[(2-propylpentyl)oxycarbonyl]cytidine]
Acylamidase activity, Monkey Liver (monkey liver acylamidase): < 13 nmol/mg protein/hr
Acylamidase activity, Human Liver (human liver acylamidase): 160 nmol/mg protein/hr

CCCCC(CC)COC(=O)Nc1nc(=O)n([C@@H]2O[C@H](C)[C@@H](O)[C@H]2O)cc1F (some centres unmarked) [Example 26, 5'-deoxy-N^4-[(2-ethylhexyl)oxycarbonyl]-5-fluorocytidine]
Acylamidase activity, Monkey Liver (monkey liver acylamidase): 20 nmol/mg protein/hr
Acylamidase activity, Human Liver (human liver acylamidase): 560 nmol/mg protein/hr

CCCCCCCOC(=O)Nc1nc(=O)n([C@@H]2O[C@H](C)[C@@H](O)[C@H]2O)cc1F [Example 27, 5'-deoxy-5-fluoro-N^4-(heptyloxycarbonyl)cytidine]
Acylamidase activity, Monkey Liver (monkey liver acylamidase): 59 nmol/mg protein/hr
Acylamidase activity, Human Liver (human liver acylamidase): 110 nmol/mg protein/hr
Fecal observation ([1]; Exp. 2, 1.5 mmol/kg/day x 21, oral): N
Fecal observation [1, 7]: N
inhibition in vivo at 0.13 mmol/kg/day [1, 6]: 26%
inhibition in vivo at 0.3 mmol/kg/day [1, 8]: 72%
inhibition in vivo at 0.67 mmol/kg/day [1, 9]: 84%
inhibition in vivo at 1.5 mmol/kg/day [1, 10]: 94%
inhibition in vivo at 2.25 mmol/kg/day [1, 11]: 103%

C[C@H]1O[C@@H](n2cc(F)c(NC(=O)OCC(C)(C)C)nc2=O)[C@H](O)[C@@H]1O [Example 28, 5'-deoxy-5-fluoro-N^4-(neopentyloxycarbonyl)cytidine]
Acylamidase activity, Monkey Liver (monkey liver acylamidase): 25 nmol/mg protein/hr
Acylamidase activity, Human Liver (human liver acylamidase): 52 nmol/mg protein/hr
Plasma 5'-DFUR AUC [2]: 1.40 µg·h/mL

C[C@H]1O[C@@H](n2cc(F)c(NC(=O)OCCC(C)(C)C)nc2=O)[C@H](O)[C@@H]1O [Example 29, 5'-Deoxy-N^4-[(3,3-dimethylbutoxy)carbonyl]-5-fluorocytidine]
Acylamidase activity, Monkey Liver (monkey liver acylamidase): 22 nmol/mg protein/hr
Acylamidase activity, Human Liver (human liver acylamidase): 50 nmol/mg protein/hr
Plasma 5'-DFUR AUC [2]: 2.09 µg·h/mL
